System: Plodia interpunctella adult females
Assay: flight tunnel bioassay of attraction (upwind progress score)
Format: in vivo
Parameters: key to Score (flight tunnel bioassay): 0.25 per quarter line crossed; final 0.25 for contacting test subject
Details: for Score (flight tunnel bioassay): day 22 Plodia females, ten females per test, observed ten minutes, 0.25 per quarter line crossed and for contact
Experimental: All tests were conducted in a clear, acrylic flight chamber 75 cm (L), 22 cm (W), 24 cm (H). Room air was pushed through the chamber with a 115 volt, 0.35 Amp motor-driven roller fan. Air speed was maintained at 0.4 m/sec. The chamber was positioned horizontally on a table in a walk-in environmental chamber maintained at 30° C. and 65% R.H. The only light was provided by a 25 Watt red filtered incandescent bulb centrally positioned 90 cm above tunnel floor and providing 9.0 Lux at the floor center.
Insects used were laboratory reared Plodia interpuctella. Ten 4-day old adult females from a general rearing box were selected and transferred into a 7 dram screened plastic vial for each test. Tests were performed only during the first four hours of the scotophase. Test subjects consisted of either natural products held in a glass Petri dish (Kimax, 5 cm diameter) or liquid volatiles pipetted onto a filter paper disc (Whatman #3, 2.3 cm) held off the floor by a plastic disc (5 cm diameter). These were placed upwind. A test began when the vial containing the moths was placed on the floor down-wind and the lid of the vial was removed. Distance between vial and test material was 62 cm. […] A final 0.25 was scored for actually contacting the test subject. Individual moths were tested only once.
Volatiles from natural products were collected for twenty-four hours by passing commercial, compressed nitrogen through a 150 cm^3 glass collection chamber (Analytical Research Systems) connected by tubing to an inert filter trap of 20 mg SuperQ (Alltech Associates). The collected volatiles were eluted with 150 ul dichloromethane and then bioassayed in the flight tunnel and analyzed by GC-MS. The SuperQ filter traps were rinsed with 200 ul dichloromethane immediately before each use.

| Structure (SMILES) | Score (flight tunnel bioassay) (Table 1) | Score (flight tunnel bioassay) (Table 2) | attractiveness alone (dilutions in dichloromethane, FIG. 3) |
| --- | --- | --- | --- |
| CCCCC(C)=O [2-hexanone] | 3.63 | 3.63 | – |
| CC1=CC[C@H]2[C@H]3[C@@H]1[C@]2(C)CC[C@H]3C(C)C [a-copaene] | 3.07 | 3.07 | – |
| CC1(C)C2CCC1(C)C(O)C2 (stereo not drawn) [borneol] | 2.83 | 2.83 | – |
| Cc1ccc(C(C)C)cc1 [cymene] | 3.00 | 3.00 | – |
| CCCCCC=CCCC(=O)OCC [ethyl 4-decenoate] | 3.50 | 3.50 | – |
| CCOc1cc(C=O)ccc1O [ethyl vanillin] | 2.63 | 2.63 | – |
| CCCCCCOC(C)=O [hexyl acetate] | 3.60 | 3.60 | – |
| CCCCCCCC(=O)OC [methyl octanoate] | 2.91 | 2.91 | – |
| C=CC(=C)CCC=C(C)C [myrcene] | 2.95 | 2.95 | – |
| CCC/C=C/CO [trans-2-hexen-1-ol] | 3.00 | 3.00 | – |
| CCCCCCCCCCC [undecane] | – | – | unattractive alone |

From patent publication US8092789B1, “Indian meal moth attractant” (The United States of America, as represented by the …, priority 2009, dated 2012)
